Data: patent publication US7745402B2, “Method of treating pancreatitis” (Lundbeck Inc., priority 2005, dated 2010)

Legend:
peritoneal cells = assay: Effect of hemin on peritoneal cell number (cell counting, flow cytometry); format: in vivo; details: mice injected during a 7-day period, 3 per group, p 0.06 vs vehicle
Protocol: The effect of hemin or vehicle on peritoneal cell number was assayed. Mice (3 per group) were injected with vehicle or hemin during a 7-day period. Peritoneal cells were then isolated followed by counting. Cell viability was greater than 98% using trypan blue exclusion. The number of cells that were double positive for Mac-1^+ and F4/80^+ was then determined using flow cytometry. P-values compared the hemin treated versus the vehicle treated groups.

MIP-2 = assay: Real-time RT-PCR of pancreatic chemokine mRNA after hemin; format: in vivo, mice; details: pancreas 24 h after one intraperitoneal injection
Protocol: (§1) FIG. 3: Hemin increases HO-1^+ pancreatic macrophages in association with MCP-1 and MIP-1α induction. (A) Pancreas from CDD-fed mice was triple-stained using antibodies to HO-1 (a), the macrophage marker F4/80 (b), and the granulocyte marker Gr-1 (c). Scale bar in panel d=[…]. (B) Mice were treated intraperitoneally with hemin (H) or vehicle (V) once (H×1) or 3×(H×3, V×3) during a one week period, followed by feeding with CDD or regular chow for 3 d. Pancreata were collected followed by staining and counting F4/80^+ macrophages in 10 randomly selected high power fields (HPF). The mean±SD (3 mice/group) and p-value for the indicated comparisons are shown. (C) Hemin (H) or vehicle (V) were injected intraperitoneally once followed by harvesting of pancreata after 24 h. A non-injected control “C” group was also included. mRNA levels were then estimated from pancreata of 3 mice/group as a ratio of the indicated chemokine to β-actin (mean±SD).
(§2) Real-time reverse transcription (RT)-PCR. Total RNA was isolated from pancreatic tissue using a commercial kit (TEL-TEST; Friendswood, Tex.). First strand cDNA was synthesized using oligo-dT primers and SuperScript II reverse transcriptase (Invitrogen; Carlsbad, Calif.). Real-time quantitative PCR was performed with an ABI Prism 7900 Sequence Detection System (PE Biosystems; Foster City, Calif.) and established primers for MCP-1, MIP-1α, MIP-2, RANTES, and β-actin. Zhong, B., et al., J. Cell Sci. 117:1709-1719; Zhang, Y., McCormick, L. L., Desai, S. R., Wu, C., and Gilliam, A. C. 2002. Murine sclerodermatous graft-versus-host disease, a model for human scleroderma: cutaneous cytokines, chemokines, and immune cell activation. J. Immunol. 168:3088-3098; Walzog, B., Weinmann, P., Jeblonski, F., Scharffetter-Kochanek, K., Bommert, K., and Gaehtgens, P. 1999. A role for beta(2) integrins (CD11/CD18) in the regulation of cytokine20 gene expression of polymorphonuclear neutrophils during the inflammatory response. FASEB J. 13:1855-1865. Primers to β-actin were used as an internal control reference, and the amount of specific cytokine relative to actin transcript was determined and reported as mean±SD.

MIP-1α = assay: as above; format: in vivo, mice; details: pancreas 24 h after one intraperitoneal injection
Protocol: as §1, §2

MCP-1 = assay: as above; format: in vivo, mice; details: pancreas 24 h after one intraperitoneal injection
Protocol: as §1, §2

[1] = system: caerulein-induced pancreatitis; assay: Caerulein-induced pancreatitis and its pulmonary complications after hemin pretreatment; format: in vivo, Balb/c mice; details: hemin 3× every other day, then caerulein hourly 7×; 12 h
Protocol: (A,B) Mice were injected intraperitoneally with hemin (H) or vehicle (V; 7 mice/group) every other day (3×; arrows) followed by injection with either saline (Sal) or caerulein (Cae) hourly (7×; arrows) and then harvesting of the pancreata and lungs at 12 h after first Sal or Cae injection. Sera were collected for amylase/lipase measurement. (C-E) Pancreatic and lung tissues (from panels A,B) were used to determine trypsin (pmol/mg protein) and myeloperoxidase (MPO; ng/mg wet tissue) enzyme activities and to assess extent of tissue injury. Data are presented as mean±SD. A representative hematoxylin and eosin staining of lung is shown (scale bar=50 μM).
Mice and pancreatitis models. Experiments and animal care were performed according to approved institutional guidelines. […]
Animal procedures. […] Immunofluorescence staining was performed as described (29) and images were analyzed using confocal microscopy. Total tissue lysates were prepared by homogenization in Laemmli sample buffer and analyzed by SDS-PAGE followed by transfer to membranes for blotting and protein visualization by enhanced chemiluminescence. Trypsin activity was determined using a fluorimetric assay and the substrate Boc-Gln-Ala-Arg-MCA (Peptides International Inc.; Louisville, Ky.), and comparison to a standard curve generated with purified trypsin as described. […]

Hemin
Total cell number (peritoneal cells): 7.3 ± 2.1 × 10^6 | change in MIP-2 mRNA level (MIP-2): not significant | MIP-1α mRNA (ratio to β-actin) (MIP-1α): induction | MCP-1 mRNA (ratio to β-actin) (MCP-1): induction | lung histology (hemorrhage, alveolar collapse) [1]: marked hemorrhage and alveolar collapse in vehicle (a) compared to hemin (b) pretreated mice
